The values that follow come from ChEMBL document CHEMBL3507680, “University of Dundee, Gates Library screen for HepG2 cell viability”.

The data set in a line: Human HepG2 cell viability assay in 384 well format. It counts as toxicity, cell-based. More on the design: dose 125 nL, time 70.5 hour; cytotoxicity at 70.5 h: concentration not given beside the values. Conditions: HepG2 cells, read-out: Inhibition.
As to `CC(=O)N1CCO[C@@H]2CN(S(=O)(=O)c3cccs3)CC[C@@H]2C1`, the cytotoxicity at 70.5 h was -9.77%.

Take `COCC1COCCC12CCN(S(=O)(=O)c1ccccc1C)CC2` (stereo not given): the cytotoxicity at 70.5 h was 7.67%.

As to `C[C@H]1CCCCN1CCCNc1nccc(-c2c[nH][nH]c2=O)n1`, the cytotoxicity at 70.5 h was 4.41%.

On to `CN1CCN(CC2CC2)C(=O)c2cnc(N3CCOCC3)nc21`, for which the cytotoxicity at 70.5 h was -3.35%.

As to `Cc1[nH]c2ccccc2c1-c1ccnc(N[C@H](CO)CC(C)C)n1`, the cytotoxicity at 70.5 h is -2.73%.

Turning to `COC(=O)c1ccc2c(-c3ccnc(N[C@@H](C)CO)n3)c[nH]c2c1`, the cytotoxicity at 70.5 h is -2.09%.

With `CC[C@@H](C)[C@@H](N)C(=O)Nc1cccc(-c2cnc(N(C)C)nc2)c1`, the cytotoxicity at 70.5 h is -4.42%.

For the compound `O=C1CN(CC2CC2)Cc2nc(NCCc3ccccn3)sc21`, the cytotoxicity at 70.5 h worked out at 26.4%.

As for `CC(C)NC(=O)NCc1cc(-c2ccco2)n(CC(F)(F)F)n1`, the cytotoxicity at 70.5 h is -5.8%.

For `CN1CCCN(c2nccc(-c3c[nH]nc3-c3ccncc3)n2)CC1`, the cytotoxicity at 70.5 h is -3.42%.

Take `O=C(Nc1ccc(-c2cnc(NCCO)nc2)cc1)[C@@H]1CCCCN1`: the cytotoxicity at 70.5 h was -3.46%.

With `CN(c1nccc(-c2cnc3sccn3c2=O)n1)C1CCCCC1`, the cytotoxicity at 70.5 h is -3.44%.

For the compound `O=c1c(-c2ccnc(N3CCCC[C@@H]3CO)n2)cnc2sccn12`, the cytotoxicity at 70.5 h was -4.35%.

`CN1CCN(CC2CC2)C(=O)c2cnc(N3CCC(CO)CC3)nc21`: the cytotoxicity at 70.5 h was -4.14%.

For the compound `O=c1[nH]c(-c2ccncc2)ncc1-c1ccnc(NC2CCCCC2)n1`, the cytotoxicity at 70.5 h amounted to 18.2%.

With `CC(C)[C@H](NS(C)(=O)=O)C(=O)NCc1cc(-c2ccccc2)n[nH]1`, the cytotoxicity at 70.5 h was -10.8%.

Regarding `COc1cccc(OC)c1-c1ccnc2cc(CC(=O)NC3CC3)nn12`, the cytotoxicity at 70.5 h was -11%.

On to `CCc1ccc(-c2ncc3c(n2)N(C)CCN(CCN(C)C)C3=O)cc1`, for which the cytotoxicity at 70.5 h is -5.02%.

For `CC(C)NC(=O)N1CC(=O)c2sc(Nc3ccc(C#N)cc3)nc2C1`, the cytotoxicity at 70.5 h is -7.13%.

Consider `COc1cccc(-c2ncc3c(n2)N(C)CCN(CCN(C)C)C3=O)c1`, for which the cytotoxicity at 70.5 h is -6.84%.

With `Cc1cn2c(=O)c(-c3ccnc(N(C)C4CCCCC4)n3)cnc2s1`, the cytotoxicity at 70.5 h was -3.7%.

In the case of `Cc1csc2ncc(-c3ccnc(N4CCCN(C)CC4)n3)c(=O)n12`, the cytotoxicity at 70.5 h was -0.0913%.

Take `CC(C)Nc1nc2c(s1)C(=O)CN(C(=O)NCCc1ccccc1)C2`: the cytotoxicity at 70.5 h is -4.98%.

As for `COc1ccccc1Nc1nc2c(s1)C(=O)CN(C(=O)CC(C)C)C2`, the cytotoxicity at 70.5 h was 2.87%.

With `O=c1c(-c2ccnc(NC3CCCCC3)n2)cnc2sc(Cl)cn12`, the cytotoxicity at 70.5 h was -5.61%.

As for `CC(C)Nc1ncc(-c2csc(NC(=O)C[C@H]3COCCN3)n2)cn1`, the cytotoxicity at 70.5 h is -10.2%.

As to `CNCC(=O)Nc1cccc(-c2cnc(NCCS(C)(=O)=O)nc2)c1`, the cytotoxicity at 70.5 h stood at 0.0271%.

With `CC(C)[C@H](NS(C)(=O)=O)C(=O)NCc1cc(-c2ccccc2)nn1C`, the cytotoxicity at 70.5 h stood at 7.09%.

As to `CCNc1nc(-c2cccnc2)c(-c2ccnc(N3CCOCC3)n2)s1`, the cytotoxicity at 70.5 h was -10.7%.

Consider `CC[C@H](C)[C@H](N)C(=O)N1CC(=O)c2sc(Nc3ccc(F)cc3)nc2C1`, for which the cytotoxicity at 70.5 h is 7.24%.

For `CS(=O)(=O)NCc1cc(-c2cc(F)cc(F)c2)nc(N2CC[C@H](O)C2)n1`, the cytotoxicity at 70.5 h is -10.5%.

On to `O=c1[nH][nH]cc1-c1ccnc(NCCN2CCCC2)n1`, for which the cytotoxicity at 70.5 h turned out to be 50.4%.

On to `CN1CCN(CC2CC2)C(=O)c2cnc(N3CC[C@@H](O)C3)nc21`, for which the cytotoxicity at 70.5 h was 27.1%.

Consider `Nc1nccc(-c2c[nH]nc2C2CCCCC2)n1`, for which the cytotoxicity at 70.5 h was 47.1%.

With `Cc1c(C(C)NC2CCOCC2)cnn1-c1ccc(F)cc1F` (stereo not given), the cytotoxicity at 70.5 h is 9.85%.

Turning to `CCn1c(CC2CCN(C(=O)C3CC(C(C)C)=NO3)CC2)nn(C)c1=O` (stereo not given), the cytotoxicity at 70.5 h was -6.72%.

As to `CCNc1ncc(C(=O)NCc2ccc3nsnc3c2)cn1`, the cytotoxicity at 70.5 h was 0.938%.

On to `CN(Cc1nc(-c2ccccc2)no1)Cc1cnc(N2CCOCC2)s1`, for which the cytotoxicity at 70.5 h amounted to 1.48%.

As to `CCC(O)CNC(=O)c1cc(COc2ccc(OC)cc2Cl)[nH]n1` (stereo not given), the cytotoxicity at 70.5 h was -1.08%.

Consider `CSc1ncccc1C(=O)N1CCCC1c1ccc(C(=O)N(C)C)s1` (stereo not given), for which the cytotoxicity at 70.5 h is -15.4%.

`O=C(Cc1ccc(-c2ccccc2)cc1)N1CCOCC(O)C1` (stereo not given): the cytotoxicity at 70.5 h was -9.74%.

Regarding `COc1cc(C(=O)NCc2cc(N3CCOCC3)ncn2)ccn1`, the cytotoxicity at 70.5 h stood at 20.4%.

For the compound `COCCC1(CO)CCCN(C(=O)c2ccc(C(C)C)[nH]c2=O)C1` (stereo not given), the cytotoxicity at 70.5 h is 11.1%.

In the case of `COc1ccc(-c2cn[nH]c2)cc1CNC1CCCC1`, the cytotoxicity at 70.5 h was -19.5%.

Regarding `Cn1ncc(N2CCC(CNC3CC(c4ccccc4)C3)CC2)cc1=O` (stereo not given), the cytotoxicity at 70.5 h was -5.35%.

For `Cc1ccccc1N1CCN(C(=O)c2cnc(N(C)C)nc2C)C(C)C1` (stereo not given), the cytotoxicity at 70.5 h is -7.48%.

Consider `Nc1ncccc1CN1CCCn2nc(CCC(=O)NC3CC3)cc2C1`, for which the cytotoxicity at 70.5 h is -2.41%.

Take `CN(CCc1cn[nH]c1)C(=O)C1CC(=O)N(Cc2ccccn2)C1` (stereo not given): the cytotoxicity at 70.5 h stood at 6.7%.

Consider `CCc1cn[nH]c1C1CCN(C(=O)c2cc(C(C)=O)c(C)[nH]c2=O)CC1`, for which the cytotoxicity at 70.5 h was -9.17%.

With `Cc1ccc(=O)n(CC(=O)N(C)Cc2csc(-c3cccs3)n2)n1`, the cytotoxicity at 70.5 h is -7.16%.

For the compound `Cc1ccc2nc(C)c(C)c(C(=O)N3CCS(=O)(=O)CC3)c2c1`, the cytotoxicity at 70.5 h is -12.9%.

As for `CC(C)n1cnnc1CN(C)Cc1ccc(CO)o1`, the cytotoxicity at 70.5 h is -22.8%.

Consider `NC(=O)c1ccc(-n2ccnc2-c2cccc(O)c2)cc1N1CCCC1`, for which the cytotoxicity at 70.5 h is -6.04%.

With `N[C@H]1CN(C(=O)c2ccc(Cl)cc2F)C[C@@H]1C1CC1`, the cytotoxicity at 70.5 h was -4.7%.

Take `CCc1nc(C)c(C(=O)N2C[C@@H](C(=O)O)[C@H](C3CC3)C2)s1`: the cytotoxicity at 70.5 h is -4.51%.

For the compound `CCOC(=O)c1n[nH]cc1CN1CCCC(N(C)Cc2ccccc2)C1` (stereo not given), the cytotoxicity at 70.5 h amounted to 2.53%.

As to `CCN(Cc1ccncc1)C1CCCN(Cc2ccc(F)cc2Cl)C1` (stereo not given), the cytotoxicity at 70.5 h was determined as 1.69%.

Turning to `c1c[nH]c(-c2cn(CCSc3cnn[nH]3)nn2)n1`, the cytotoxicity at 70.5 h is -11.9%.

Consider `CCc1nc(N2CCCC(CCOC)(C(=O)O)C2)ncc1C` (stereo not given), for which the cytotoxicity at 70.5 h was -4.01%.

In the case of `Cc1cc(C)n(C2CCN(C(=O)c3cn4ccsc4n3)C2)n1` (stereo not given), the cytotoxicity at 70.5 h was -7.56%.

As to `Cc1cc(C2CCC2)nc(NCCC23CCCN2CCC3)n1`, the cytotoxicity at 70.5 h was -8.73%.

For the compound `O=C1CCC2(CCCN(C(=O)c3ccoc3)C2)CN1Cc1ccncc1` (stereo not given), the cytotoxicity at 70.5 h is -16.8%.

As to `O=C(c1ccnc(N2CCOC(C(F)(F)F)C2)c1)N1CCOCC1` (stereo not given), the cytotoxicity at 70.5 h was -19.7%.

For the compound `CC(C)c1nnc2sc(CC3CN(Cc4ccccc4)CCO3)nn12` (stereo not given), the cytotoxicity at 70.5 h came to 6.69%.

Take `CC(C)[C@H]1COC(=O)N1CC(=O)N(C)CCCn1cccn1`: the cytotoxicity at 70.5 h is -4.67%.

Turning to `Cc1cc(-c2nn(C)c(Cl)c2CN2CCCCC(N)C2)no1` (stereo not given), the cytotoxicity at 70.5 h was -1.48%.

For the compound `CN1CCN(C(=O)NCCc2ccc(F)cc2)[C@H]2CS(=O)(=O)C[C@H]21`, the cytotoxicity at 70.5 h was -2.69%.

Turning to `CN(Cc1csc(-c2ccccc2)n1)C(=O)CCn1ccccc1=O`, the cytotoxicity at 70.5 h is -0.921%.

Turning to `CSCc1noc(CN2CC3(CCCC3)CC2=O)n1`, the cytotoxicity at 70.5 h is -7.21%.

As to `CCc1nc(N2CCCC(O)(CO)CC2)ncc1C` (stereo not given), the cytotoxicity at 70.5 h was -0.208%.

For the compound `CN1CCCN(C(=O)c2cnc(Cc3c(Cl)cccc3Cl)nc2O)CC1`, the cytotoxicity at 70.5 h is -3.04%.

Turning to `CC1(C)CCN(Cc2ccccc2-c2nc(C(C)(C)C)cc(=O)[nH]2)C1`, the cytotoxicity at 70.5 h is -4.72%.

As to `Cc1ccc(C(=O)N2CCC(=O)N(CC3CC3)C(C(C)C)C2)c(=O)[nH]1` (stereo not given), the cytotoxicity at 70.5 h was determined as 4.74%.

For `CCN1CC2(CCN(C(=O)C(C)Oc3ccc(F)cc3F)CC2)OC1=O` (stereo not given), the cytotoxicity at 70.5 h was -1.13%.

`Cc1cnc(NC(=O)c2cccc(CN(C)Cc3snnc3C)c2)s1`: the cytotoxicity at 70.5 h is -4.01%.

For the compound `CC(c1ccon1)N(C)C(=O)C1CCN(C2CCCCC2)CC1` (stereo not given), the cytotoxicity at 70.5 h is -1.12%.

For `Cc1ccccc1-n1cc(CN(C)C(=O)CC2C(=O)NCCN2C)cn1` (stereo not given), the cytotoxicity at 70.5 h is -2.44%.

For the compound `CN(CCCN1CCCCCC1)C(=O)c1ccccc1NCC(=O)O`, the cytotoxicity at 70.5 h was -12.7%.

With `O=C(CN1CCOC1=O)N1CC[C@@H](c2ccc3ccccc3c2)[C@H](O)C1`, the cytotoxicity at 70.5 h is -9.33%.

In the case of `Cc1ccc(CN(Cc2ccccn2)C(=O)CCC2CCCN(C)C2)s1` (stereo not given), the cytotoxicity at 70.5 h is 32.1%.

As for `CC(C)(C)c1cc(CN2CCOCC(O)C2)n[nH]1` (stereo not given), the cytotoxicity at 70.5 h was determined as 2.49%.

For `c1cc(CN2CCC(c3nnc4n3CCCCC4)CC2)c2c(c1)OCO2`, the cytotoxicity at 70.5 h was -5.9%.

Consider `c1cncc(CN2CCCC(Nc3ncnc4c3CCNCC4)C2)c1` (stereo not given), for which the cytotoxicity at 70.5 h is -11.7%.

`Cc1cc(N2C[C@H](C3CC3)[C@@H](N)C2)nc(N2CCCCC2)n1`: the cytotoxicity at 70.5 h amounted to 3.53%.

As to `COc1ccc(CN2CCC3(CC2)C(C(=O)O)CC(=O)N3C)cc1Cl` (stereo not given), the cytotoxicity at 70.5 h was -3.23%.

As for `C[C@@H]1CN(C(=O)Cn2ccc3ncccc3c2=O)C[C@H](C)O1`, the cytotoxicity at 70.5 h was -5.8%.

As to `CCC[C@H]1CN(S(=O)(=O)c2cc(C)ccc2F)C[C@@H]1N`, the cytotoxicity at 70.5 h is -0.888%.

For the compound `Cc1nccc(N[C@H]2CN(CCS(C)(=O)=O)C[C@@H]2C2CC2)n1`, the cytotoxicity at 70.5 h was 18.1%.

Consider `CN1CC(C(=O)N2CCN(c3cccc(Cl)c3)C(=O)C2)NC1=O` (stereo not given), for which the cytotoxicity at 70.5 h is -7.63%.

Turning to `COCCn1cnnc1Cn1ccnc1-c1ccsc1`, the cytotoxicity at 70.5 h is 1.35%.

With `COc1ccccc1-n1nc(C(C)C)nc1Cc1nnc(N)s1`, the cytotoxicity at 70.5 h was -12.4%.

For `CN(C)Cc1cncc2c1CCN(C1CCOCC1)C2`, the cytotoxicity at 70.5 h is -8.32%.

In the case of `CCN1CCO[C@@H]2CN(S(=O)(=O)c3cccs3)CC[C@@H]2C1`, the cytotoxicity at 70.5 h is -6.19%.

For the compound `Cn1cc(CN2CCc3onc(C(=O)N4CCCC4)c3C2)cn1`, the cytotoxicity at 70.5 h came out at 5.88%.

In the case of `Cc1noc(C)c1CN1C[C@H](OCC2CCN(C)CC2)[C@H]2COC[C@H]21`, the cytotoxicity at 70.5 h was found to be 30.4%.
